Broadly, the IC50 is the concentration needed to halve the response being measured.

Structures can show the parent of a compound that is named as a salt. Bounds are passed on as bounds.

One experiment concerns the target human LSD-1 (Homo sapiens (Human), UniProt O60341). As to the kind of experiment: In vitro enzyme inhibition assay LSD-1 (TR-FRET).
Details: not given
The class given is biochemical. An excerpt: This assay determines the ability of a test compound to inhibit LSD-1 demethylase activity.
The enzymatic assay of LSD-1 activity is based on Time Resolved-Fluorescence Resonance Energy Transfer (TR-FRET) detection.
A general note: Time-resolved FRET reads energy transfer from a long-lived donor to a nearby acceptor.
The compound `COc1ccc(-c2c(-c3ccc(C#N)c(F)c3)nc(N(C)C3CCNCC3)n(C)c2=O)cc1` [Example 55, 2-fluoro-4-[5-(4-methoxy-phenyl)-1-methyl-2-(methyl-piperidin-4-yl-amino)-6-oxo-1,6-dihydro-pyrimidin-4-yl]-benzonitrile] showed an IC50 of less than 100 nM.

Still in this experiment, the particulars now being: TR-FRET, H3K4me1-biotin labeled peptide.
For `COc1ccc(-c2c(-c3ccc(C#N)c(F)c3)nc(N3CCC(N)CC3)n(CC(=O)O)c2=O)cc1` [Example 15, [2-(4-amino-piperidin-1-yl)-4-(4-cyano-3-fluoro-phenyl)-5-(4-methoxy-phenyl)-6-oxo-6H-pyrimidin-1-yl]-acetic acid], the IC50 was less than 100 nM.
On the same count and under the same terms, then `Cn1c(N2CCC(N)CC2)nc(-c2ccc(C#N)c(F)c2)c(C#N)c1=O` [Example 19, 2-(4-amino-piperidin-1-yl)-4-(4-cyano-3-fluoro-phenyl)-1-methyl-6-oxo-1,6-dihydro-pyrimidine-5-carbonitrile], with less than 100 nM; and `CNC1CCN(c2nc(-c3ccc(C#N)c(F)c3)c(-c3ccc(C)nc3)c(=O)n2C)CC1` [Example 21, 2-fluoro-4-[1-methyl-2-(4-methylamino-piperidin-1-yl)-5-(6-methyl-pyridin-3-yl)-6-oxo-1,6-dihydro-pyrimidin-4-yl]-benzonitrile], with less than 100 nM.
Same read-out and setting: then `COc1ncc(-c2c(-c3ccc(C#N)c(F)c3)nc(N3CCC(N)CC3)n(C)c2=O)cc1F` [Example 26, 4-[2-(4-aminopiperidyl)-5-(5-fluoro-6-methoxy(3-5,6-dihydropyridyl))-1-methyl-6-oxohydropyrimidin-4-yl]-2-fluorobenzenecarbonitrile], with less than 100 nM; and `COc1ccc(-c2c(-c3ccc(C#N)c(F)c3)nc(N3CCC[C@H](N)C3)n(C)c2=O)cc1F` [Example 28, 4-[2-((3S)-3-amino-piperidin-1-yl)-5-(3-fluoro-4-methoxy-phenyl)-1-methyl-6-oxo-1,6-dihydro-pyrimidin-4-yl]-2-fluoro-benzonitrile], with less than 100 nM; and `CNC(=O)c1ccc(-c2c(-c3ccc(C#N)cc3)nc(N3CCC(N)CC3)n(C)c2=O)cc1F` [Example 40, {4-[2-(4-aminopiperidyl)-6-(4-cyanophenyl)-3-methyl-4-oxo-(3-hydropyrimidin-5-yl)]-2-fluorophenyl}-N-methylcarboxamide], with less than 100 nM.
The compound `COc1ccc(-c2c(-c3ccc(C#N)cc3)nc(NC[C@H]3CCNC3)n(C)c2=O)cc1F` [Example 44, 4-{5-(3-fluoro-4-methoxy-phenyl)-1-methyl-6-oxo-2-[(3S)-(pyrrolidin-3-ylmethyl)-amino]-1,6-dihydro-pyrimidin-4-yl}-benzonitrile] gave a half-inhibitory concentration (IC50) of less than 100 nM.
As to `COc1ccc(-c2c(-c3ccc(C#N)cc3)nc(NC[C@@H]3CCNC3)n(C)c2=O)cc1F` [Example 45, 4-{5-(3-fluoro-4-methoxy-phenyl)-1-methyl-6-oxo-2-[(3R)-(pyrrolidin-3-ylmethyl)-amino]-1,6-dihydro-pyrimidin-4-yl}-benzonitrile], the IC50 was less than 100 nM.
In turn, `COc1ccc(-c2c(-c3ccc(C#N)c(F)c3)nc(N3CCNCC3)n(C)c2=O)cc1F` [Example 47, 2-fluoro-4-[5-(3-fluoro-4-methoxy-phenyl)-1-methyl-6-oxo-2-piperazin-1-yl-1,6-dihydro-pyrimidin-4-yl]-benzonitrile] yielded an IC50 of less than 100 nM.
On to `COc1ccc(-c2c(-c3ccc(C#N)c(F)c3)nc(NC3CCNCC3)n(C)c2=O)cc1` [Example 53, 2-fluoro-4-[5-(4-methoxy-phenyl)-1-methyl-6-oxo-2-(piperidin-4-ylamino)-1,6-dihydro-pyrimidin-4-yl]-benzonitrile], for which the IC50 was less than 100 nM.
Compound `COc1ccc(-c2c(-c3ccc(C#N)c(F)c3)nc(N3CCCNCC3)n(C)c2=O)cn1` [Example 61, 4-[2-[1,4]diazepan-1-yl-5-(6-methoxy-pyridin-3-yl)-1-methyl-6-oxo-1,6-dihydro-pyrimidin-4-yl]-2-fluoro benzonitrile] came in with an IC50 of less than 100 nM.
Compound `COc1ccc(-c2c(-c3ccc(C#N)cc3)nc(N3CCCNCC3)n(C)c2=O)cn1` [Example 62] registered an IC50 of less than 100 nM.
In turn, `COc1ccc(-c2c(-c3ccc(C#N)c(F)c3)nc(N3CC(CN)C3)n(C)c2=O)cc1` [Example 69, 4-[2-(3-aminomethyl-azetidin-1-yl)-5-(4-methoxy-phenyl)-1-methyl-6-oxo-1,6-dihydro-pyrimidin-4-yl]-2-fluoro-benzonitrile] registered a 50% inhibitory concentration (IC50) of less than 100 nM.
In turn, `CN(C)c1ncc(-c2c(-c3ccc(C#N)c(F)c3)nc(N3CCC(N(C)C)CC3)n(C)c2=O)cn1` [Example 81, 4-[2′-dimethylamino-2-(4-dimethylamino-piperidin-1-yl)-1-methyl-6-oxo-1,6-dihydro-[5,5′]bipyrimidinyl-4-yl]-2-fluoro-benzonitrile] displayed an IC50 of less than 100 nM.
The same measure, in the same setting: then `Cc1ccc(-c2c(-c3ccc(C#N)c(F)c3)nc(N3CCC(N(C)C)CC3)n(C)c2=O)cn1` [Example 82, 4-[2-(4-dimethylamino-piperidin-1-yl)-1-methyl-5-(6-methyl-pyridin-3-yl)-6-oxo-1,6-dihydro-pyrimidin-4-yl]-2-fluoro-benzonitrile], with less than 100 nM; and `Cn1c(N2CCC(N)CC2)nc(-c2ccc(C#N)c(F)c2)c(-c2ccc(F)cc2)c1=O` [Example 101, 4-[2-(4-aminopiperidin-1-yl)-5-(4-fluorophenyl)-1-methyl-6-oxopyrimidin-4-yl]-2-fluorobenzonitrile], with less than 100 nM.
Same read-out and setting: then `Cn1c(N2CCC(N)CC2)nc(-c2ccc(C#N)c(F)c2)cc1=O` [Example 108, 4-[2-(4-aminopiperidin-1-yl)-1-methyl-6-oxopyrimidin-4-yl]-2-fluorobenzonitrile], with less than 100 nM; and `C#Cc1c(-c2ccc(C#N)c(F)c2)nc(N2CCC(N)CC2)n(C)c1=O` [Example 110], with less than 100 nM.
`Cn1c(N2CCC(N)CC2)nc(-c2ccccc2)c(-c2ccc3c(ccn3C)c2)c1=O` [Example 114, 2-(4-amino-piperidin-1-yl)-3-methyl-5-(1-methyl-1H-indol-5-yl)-6-phenyl-3H-pyrimidin-4-one] registered an IC50 of more than 10000 nM.
The same measure, in the same setting: then `COc1ccc(-c2c(-c3cccc(C#N)c3)nc(N3CCC(N)CC3)n(C)c2=O)cc1F` [Example 118, 3-[2-(4-aminopiperidin-1-yl)-5-(3-fluoro-4-methoxyphenyl)-1-methyl-6-oxopyrimidin-4-yl]benzonitrile], with more than 10000 nM; and `COc1ccc(-c2c(-c3ccccc3C#N)nc(N3CCC(N)CC3)n(C)c2=O)cc1F` [Example 119, 2-[2-(4-aminopiperidin-1-yl)-5-(3-fluoro-4-methoxyphenyl)-1-methyl-6-oxopyrimidin-4-yl]benzonitrile], with more than 10000 nM; and `Cn1c(N2CCC(N)CC2)nc(-c2ccc(C#N)c(F)c2)c(C#N)c1=O` [Example 121, 2-(4-amino-piperidin-1-yl)-4-(4-cyano-3-fluoro-phenyl)-1-methyl-6-oxo-1,6-dihydro-pyrimidine-5-carbonitrile], with 100 to 1000 nM.

For a further experiment, the system named is CD11b expression in THP-1 (AML) cells. The experiment is described as follows: LSD-1 CD11b cellular assay (flow cytometry). The settings on record: Homo sapiens, THP-1, 96 h, read-out: THP-1 IC50. (In flow cytometry, cells or beads pass a laser one at a time.)
Protocol: To analyze LSD-1 inhibitor efficacy in cells, a CD11b flow cytometry assay was performed. […] LSD-1 test compounds were serially diluted in DMSO. The dilutions were added to each well accordingly to a final concentration of 0.2% DMSO. The cells were incubated at 37 degrees Celsius in 5% CO2 for 4 days. 250 μL of each well was transferred to a well in a 96 well round bottom plate. The plate was centrifuged at 1200 rpm at 4 degrees Celsius in a Beckman Coulter Alegra 6KR centrifuge for 5 minutes. The media was removed leaving the cells at the bottom of the wells. The cells were washed in 100 μL cold HBSS (Hank's Balanced Salt Solution) plus 2% BSA (Bovine Serum Albumin) solution and centrifuged at 1200 rpm at 4 degrees Celsius for 5 minutes. The wash was removed. […] The cells were centrifuged and washed two times in 100 μl HBSS plus 2% BSA. After the final spin the cells were resuspended in 100 μL HBSS plus 2% BSA containing 1 μg/mL DAPI (4′,6-diamidino-2-phenylindole). The cells were then analyzed by flow cytometry in a BD FACSAria machine. Cells were analyzed for CD11b expression. The percent of CD11b expressing cells for each inhibitor concentration was used to determine an IC50 curve for each compound analyzed.
For the compound `Cc1ccc(-c2c(-c3ccc(C#N)cc3)nc(N3CCC(N)CC3)n(C)c2=O)cc1` [Example 1, 4-(2-(4-aminopiperidin-1-yl)-1-methyl-6-oxo-5-p-tolyl-1,6-dihydropyrimidin-4-yl)benzonitrile, HCl salt], the IC50 is less than 100 nM.

Source of the values: patent US10328077B2 (CELGENE CORPORATION, priority 2016, dated 2019).
